According to patent publication US6924269B2, “Enzyme inhibitors and methods therefor” (VDF Futureceuticals, Inc., priority 2002, dated 2005):

Legend:
COX-1 = molecular target: T1, COX-1 (Homo sapiens, UniProt P23219); experiment: COX-1 enzyme inhibition study (human platelets, endogenous arachidonic acid, EIA of PGE2); type: biochemical
T1 construct: the source material was human platelets using endogenous arachidonic acid; endogenous in cells; host or cells: human platelets
Procedure: COX-1 enzyme inhibition study was performed using a protocol similar to protocols previously described (see e.g., Riendeau D, et al. in Brit. J. Pharmacol. (1997) 121:105-117; or Warner et al. in Proc. Natl. Acad.Sci. (1999) 96:7563-7568). Typically, the source material was human platelets using endogenous arachidonic acid (Vehicle 1% DMSO) at a preincubation time of 15 min at 37 Centigrades and an incubation time of 15 min at 37 Centigrades (Incubation buffer was HBSS buffer with 15mM HEPES pH7.4). Quantitative analysis was performed via EIA determination of PGE2.

COX-2 = molecular target: T2, COX-2 (Homo sapiens, UniProt P35354); experiment: COX-2 enzyme inhibition study (human recombinant, Sf9 cells, 0.3 microM arachidonic acid, PGE2 determination); type: biochemical
T2 construct: host or cells: Sf9 insect cells
T2 sequence (P35354 18-604): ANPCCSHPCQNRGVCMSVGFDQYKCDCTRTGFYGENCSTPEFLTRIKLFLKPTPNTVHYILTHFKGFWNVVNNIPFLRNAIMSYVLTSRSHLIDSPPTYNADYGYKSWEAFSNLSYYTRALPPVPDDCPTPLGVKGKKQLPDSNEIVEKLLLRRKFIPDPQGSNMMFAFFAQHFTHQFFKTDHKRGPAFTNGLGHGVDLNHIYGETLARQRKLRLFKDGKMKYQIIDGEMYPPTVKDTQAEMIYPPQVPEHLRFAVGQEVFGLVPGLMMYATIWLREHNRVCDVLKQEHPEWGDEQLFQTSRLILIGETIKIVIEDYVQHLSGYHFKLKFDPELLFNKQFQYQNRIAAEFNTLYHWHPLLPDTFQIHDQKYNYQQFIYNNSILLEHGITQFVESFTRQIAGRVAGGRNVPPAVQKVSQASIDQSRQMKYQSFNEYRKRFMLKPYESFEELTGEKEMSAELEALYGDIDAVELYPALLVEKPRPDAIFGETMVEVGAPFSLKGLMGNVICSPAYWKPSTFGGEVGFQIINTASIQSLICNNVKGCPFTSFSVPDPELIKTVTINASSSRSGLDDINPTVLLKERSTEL
Procedure: COX-2 enzyme inhibition study was performed using a protocol similar to protocols previously described (see e.g., Riendeau D, et al. in Can. J. Physiol. Pharmacol. (1997) 75:1088-11095; or Warner et al. in Proc. Natl. Acad.Sci. (1999) 96:7563-7568). Typically, the source material was human recombinant Sf9 cells using 0.3 microM arachidonic acid (Vehicle 1% DMSO) at a preincubation time of 15 min at 37 Centigrades and an incubation time of 15 min at 37 Centigrades (Incubation buffer was 100 mM Tris 1 mM Glutathione, 1 microM hematin, and 0.5mM phenol, pH7.7). Quantitative analysis was performed via ETA determination of PGE2.

T1 sequence (P23219 24-599): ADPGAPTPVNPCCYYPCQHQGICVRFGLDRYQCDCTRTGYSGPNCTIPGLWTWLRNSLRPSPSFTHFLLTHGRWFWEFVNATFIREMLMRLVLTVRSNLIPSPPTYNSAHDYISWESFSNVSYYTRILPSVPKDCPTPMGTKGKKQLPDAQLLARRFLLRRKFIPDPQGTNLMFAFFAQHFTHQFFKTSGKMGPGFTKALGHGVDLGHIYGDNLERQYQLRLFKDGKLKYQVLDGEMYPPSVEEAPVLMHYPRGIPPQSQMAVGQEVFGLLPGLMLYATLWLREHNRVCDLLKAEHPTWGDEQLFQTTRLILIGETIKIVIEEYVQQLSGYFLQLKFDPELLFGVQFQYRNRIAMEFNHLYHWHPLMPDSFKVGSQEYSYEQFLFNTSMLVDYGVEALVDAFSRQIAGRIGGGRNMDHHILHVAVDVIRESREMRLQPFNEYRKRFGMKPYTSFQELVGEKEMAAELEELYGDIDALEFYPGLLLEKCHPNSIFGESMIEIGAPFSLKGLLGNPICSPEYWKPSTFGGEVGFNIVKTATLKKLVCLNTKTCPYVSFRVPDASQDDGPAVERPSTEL

Substance | COX-1 IC50 (COX-1) | COX-1 (% Inhib.) (COX-1; concentration 100 μg/ml) | COX-1 (% Inhib.) (COX-1; concentration 1000 μg/ml) | COX-1 (% Inhib.) (COX-1; concentration 10 mg/ml) | Selectivity COX-1 to COX-2 (COX-1; ratio of IC50 values, COX-1 over COX-2) | COX-2 IC50 (COX-2) | COX-2 (% Inhib.) (COX-2; concentration 100 μg/ml) | COX-2 (% Inhib.) (COX-2; concentration 1000 μg/ml) | COX-2 (% Inhib.) (COX-2; concentration 10 mg/ml) | Selectivity COX-2 to COX-1 (COX-2; ratio of IC50 values, COX-2 over COX-1)
Calcium Fructoborate | 222 µg/mL | 29% | 85% | 95% | least 45-fold | >10000 µg/mL | 8% | 12% | 10% | –
Potassium Boroascorbate | 8570 µg/mL | −5% | −2% | 69% | – | <100 µg/mL | 77% | 73% | 71% | least 85-fold
